In publication PMC12747936, “Rhamnose alleviates the proinflammatory response during endotoxemia via the CEACAM1/LGALS9-p38 axis” (Acta Biochimica et Biophysica Sinica, 2025):

Legend:
[1] = target: T1, CEACAM1 (BMDMs) (Mus musculus, UniProt P31809); assay: CETSA and DARTS, western blot; format: biochemical; settings: BMDM lysate; CETSA 100 μM rhamnose, 2 h, 37-67°C; DARTS with pronase 1:1000, TNC buffer pH 8.0
T1 construct: endogenous protein in lysate of murine bone marrow-derived macrophages; band 150-250 kDa region discussed
T1 sequence (P31809 35-521): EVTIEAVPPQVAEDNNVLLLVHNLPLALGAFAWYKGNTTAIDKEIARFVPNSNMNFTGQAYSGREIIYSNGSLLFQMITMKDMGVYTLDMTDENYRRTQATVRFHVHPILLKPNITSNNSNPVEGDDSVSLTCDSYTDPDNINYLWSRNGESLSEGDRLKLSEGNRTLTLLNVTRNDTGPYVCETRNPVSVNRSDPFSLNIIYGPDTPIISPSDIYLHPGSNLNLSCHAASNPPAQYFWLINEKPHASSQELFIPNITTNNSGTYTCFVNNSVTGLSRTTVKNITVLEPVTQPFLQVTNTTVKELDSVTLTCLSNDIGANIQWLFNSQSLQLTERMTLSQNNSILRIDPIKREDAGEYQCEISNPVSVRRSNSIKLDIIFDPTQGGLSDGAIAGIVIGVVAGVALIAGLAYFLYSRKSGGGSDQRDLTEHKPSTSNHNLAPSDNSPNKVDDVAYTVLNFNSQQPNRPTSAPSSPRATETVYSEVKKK

[2] = target: T2, CEACAM1 (THP-1-dMs) (Homo sapiens, UniProt P13688); assay: CETSA and DARTS, western blot; format: biochemical; settings: THP-1-dM lysate; CETSA 100 μM rhamnose, 2 h, 37-67°C; DARTS with pronase 1:1000, TNC buffer pH 8.0
T2 construct: endogenous protein in lysate of PMA-differentiated THP-1 macrophages
T2 sequence (P13688 35-526): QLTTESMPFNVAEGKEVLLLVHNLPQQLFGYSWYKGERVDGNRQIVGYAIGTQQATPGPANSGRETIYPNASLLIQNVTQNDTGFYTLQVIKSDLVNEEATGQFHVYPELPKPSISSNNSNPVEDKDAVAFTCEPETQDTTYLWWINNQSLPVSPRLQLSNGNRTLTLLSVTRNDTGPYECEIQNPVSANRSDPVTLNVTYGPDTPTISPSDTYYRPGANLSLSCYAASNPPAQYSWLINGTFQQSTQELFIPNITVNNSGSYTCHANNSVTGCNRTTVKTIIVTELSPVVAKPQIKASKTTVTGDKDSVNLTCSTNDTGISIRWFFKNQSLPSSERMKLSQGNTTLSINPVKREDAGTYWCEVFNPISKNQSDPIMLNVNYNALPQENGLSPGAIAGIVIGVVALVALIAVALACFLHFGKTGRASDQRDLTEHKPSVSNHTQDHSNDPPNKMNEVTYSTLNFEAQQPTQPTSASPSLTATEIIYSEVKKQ

## C[C@@H]1OC(O)[C@H](O)[C@H](O)[C@H]1O (some centres unmarked) [rhamnose]
[1]
  CETSA and DARTS, western blot: CETSA also demonstrated that rhamnose reduced the degradation rate of CEACAM1 in heat-denatured BMDMs
[2]
  CETSA and DARTS, western blot: rhamnose treatment increased the resistance of the CEACAM1 protein to protease hydrolysis
